Results from ChEMBL document CHEMBL6096717, “Novel 3-Pyrrolidineindole Derivatives as Serotonergic Psychedelic Agents for Treating Psychosis and Mental Illnesses Such as Depression and Post-Traumatic Stress Disorder” (ACS Med Chem Lett, 2025).

Biological target: 5-hydroxytryptamine receptor 2A (Homo sapiens, UniProt P28223)
Test: Displacement of [3H]-ketanserin from human 5HT2A receptor incubated for 90 mins by Microbeta2 scintillation counting analysis

Sequence of 5-hydroxytryptamine receptor 2A (P28223 whole entry): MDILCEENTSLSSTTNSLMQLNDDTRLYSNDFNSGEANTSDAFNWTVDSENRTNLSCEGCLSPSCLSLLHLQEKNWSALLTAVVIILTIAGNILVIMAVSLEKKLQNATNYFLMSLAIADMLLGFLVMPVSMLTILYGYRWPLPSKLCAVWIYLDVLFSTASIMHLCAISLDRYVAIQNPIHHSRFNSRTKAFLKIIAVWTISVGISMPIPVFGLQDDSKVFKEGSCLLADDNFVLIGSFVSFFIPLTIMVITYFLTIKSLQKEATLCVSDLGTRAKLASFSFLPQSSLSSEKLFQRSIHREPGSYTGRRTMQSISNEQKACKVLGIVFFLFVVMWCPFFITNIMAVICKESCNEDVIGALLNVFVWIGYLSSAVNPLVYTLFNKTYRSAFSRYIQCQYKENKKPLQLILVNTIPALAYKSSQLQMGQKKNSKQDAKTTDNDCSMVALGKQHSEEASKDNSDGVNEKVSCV

| SMILES | IC50 [nM] |
| --- | --- |
| [2H]C([2H])(c1c[nH]c2cccc(O)c12)[C@H]1CCCN1C([2H])([2H])[2H] | < 500 |
| [2H]C([2H])([2H])N1CCC[C@@H]1Cc1c[nH]c2cccc(O)c12 | < 500 |
| [2H]C([2H])([2H])N1CCC[C@@H]1Cc1c[nH]c2cccc(F)c12 | < 500 |
| [2H]C([2H])([2H])N1CCC[C@@H]1Cc1c[nH]c2cccc(OC(=O)CCCCCCC/C=C\C/C=C\CCCC)c12 | < 500 |
| [2H]C([2H])(c1c[nH]c2cccc(OC(=O)CCCCCCC/C=C\C/C=C\CCCC)c12)[C@H]1CCCN1C([2H])([2H])[2H] | < 500 |
| [2H]C([2H])(c1c[nH]c2cccc(Cl)c12)[C@H]1CCCN1C([2H])([2H])[2H] | < 500 |
